{"source": "patent EP4361137A1", "about": "“PRUNE1 INHIBITORS AND THERAPEUTIC USE THEREOF” (CEINGE Biotecnologie Avanzate Franco Salvatore s.c. a r.l., priority 2022, dated 2024)", "key": {"MATH1-Prune1/ TP53-/-": {"test_system": "MATH1-Prune1/ TP53-/-", "experiment": "Orthotopic implantation of MATH1-Prune1/TP53-/- cells in immunocompetent syngeneic mice, tumor growth", "type": "in vivo, FVB WT mice", "conditions": "for intracranial tumor growth (bioluminescence, photon emission) / BLI signal from the spinal cord (metastasis): 6 mg/kg/day intraperitoneally for 7 days, T17, HCl salt; for BLI signal from the spinal cord (metastasis): ex vivo", "protocol": "MATH1-Prune1/ TP53-/- were implanted into the right cerebellar hemisphere of female (n.10) immunocompetent syngeneic mice model (5 weeks old, strain: FVB WT) to establish intracerebellar MATH1-Prune1/ TP53-/- models. Mice were anaesthetised with Ketamine/ Xylazine (87.5 mg/kg, 12.5 mg/kg, respectively). The mice were then placed in a stereotactic frame by hooking their incisors onto the frame hold. A small skin incision (length, 1 mm) and a burr hole (diameter, 0.7 mm) were created using a microsurgical drill (Fine Science Tools, Foster City, CA, USA of MATH1-Prune1/ TP53-/- (1.5 ×10^5) were resuspended in 10 µL PBS and injected slowly through the burr hole into the right cerebellar hemisphere (stereotactic coordinates from Bregma: anteroposterior, 5.5 mm; right lateral, 2.1 mm; dorsoventral 5.0 mm), with a steady force over 30 s, using a 10-AL, 26-gauge Hamilton Gastight model 1701RN syringe needle (SigmaAldrich) that was inserted perpendicular to the cranial surface. The incision was sutured using Safil polyglycolic acid synthetic absorbable suture (6/0). The mice were kept on a warming blanket after the surgery, to help them to maintain their body temperature. Their mobility and respiratory patterns were observed continuously, and once the mice had recovered from the anaesthesia; they were place in a sterile housing cage. The mice were monitored daily for development of potential neurological deficits. 10 days after the implantation of the cells, the mice were imaged, and tumour growth was evaluated by bioluminescence acquisition using an imaging system (IVIS 3D Illumina; Xenogen/ Caliper). For the acquisitions, the mice were anaesthetised by inhalational of isoflurane, and the D-luciferin (122799; PerkinElmer) (15 mg/mL stock) was injected intraperitoneally (100 µL per 10 g body weight). At 5 min from the luciferin injection, the mice were imaged for 3 min. To quantify the bioluminescence, the integrated fluxes of photons (p/s) within each area of interest were determined using the Living Images Software Package 3.2 (Xenogen-Perkin Elmer). […] After 17 days from tumour implantation (i.e., after one weeks of LEO-AA7.5(S)T treatment), the mice were sacrificed, and the organs were collected for immunohistochemistry and immunofluorescence analyses.\nParaffin sections of the tumor specimens (thickness, 3 µm) were deparaffinised and rehydrated by immersing the slides in Xylene Substitute (A5597; Sigma), as three washes for 5 min each, then serially in 100%, 95%, 70%, 50%, and 30% ethanol (two washes for 10 min, for each), and deionised water (two washes, for 5 min each). The washes were then followed by PBS, PBS containing 0.02% Triton-X 100 (215680010; Acros Organics), and PBS (two washes for 5 min, for each). For antigen retrieval, the slides were immersed in boiling 10 mM sodium citrate buffer (pH 6.0) using a microwave oven, and then maintained at sub-boiling temperature for 10 min. The slides were left to cool at room temperature for 30 min. The sections were then washed by immersion in distilled water for 5 min. To block endogenous peroxidase activity, the tissue sections were placed in a solution with 3.0% hydrogen peroxide in methanol for 15 min. Then, to decrease the nonspecific background fluorescence, the tissues were digested by treating them with a solution containing 0.2% trypsin (T2600000; Sigma-Aldrich) and 0.001% CaCl2 for 10 min at 37 °C, in a humidified chamber. The slides were then washed in PBS, PBS containing 0.02% Triton-X 100 (215680010; Acros Organics), and PBS (two washes for 5 min, for each). The tissue sections were blocked with 6% bovine serum albumin (A9418; Sigma), 5% fetal bovine serum (ECS0180L; Euroclone), and 20 mM MgCl2 in PBS containing 0.02% Triton-X 100, for 1 h at room temperature, and incubated overnight with the primary antibodies at 4 °C in a humidified chamber. […]"}, "MMTV-Prune1/Wnt1 cells": {"test_system": "MMTV-Prune1/Wnt1 cells", "experiment": "Real-time cell proliferation assay (cell index, xCELLigence)", "type": "cell-based, murine", "conditions": "10 µM and 100 µM, dose dependent", "protocol": "D425.MED and MMTV-Prune1/Wnt1 cells were plated and treated with increasing concentrations of LEO-AA7.5(S)T for 24 hours. Water-treated cells were used as negative control for the experiments.\nCellular proliferation rates were determined with the xCELLigence system (Roche). D425-MED, MATH-Prune1/TP53-/- and MMTV-Prune1/Wnt1 cells (8 × 10^3) were treated with increasing concentrations of LEO-AA7.5(S)T, harvested, and then added to a single well of an xCELLigence E-plate 16. The proliferation rates were determined at 2-min intervals by measuring the impedance changes across the electrodes at the bottoms of the wells. These cell index values were calculated by the xCELLigence RTCA software. with vehicle-treated cells were the negative control. Impedance was measured every 2 min over 24 hours. The IC50 values were calculated through nonlinear regression analysis performed with Graph Pad Prism 9 ([inhibitor] vs. response (three parameters). Data are means ± SD of three independent experiments."}, "Caspase 3": {"test_system": "Caspase 3", "experiment": "Caspase 3 activity assay", "type": "cell-based, murine", "conditions": "MATH1-Prune1/TP53-/- cells", "protocol": "MATH1-Prune1/TP53-/- cells (3×10^4) were plated in 96-well plate and treated with different doses of Vincristine (i.e., 0.3 nM or 0.03 nM) alone or combined to 10 µM LEO-AA7.5(S)T. Vehicle- (0.01% DMSO) treated cells were used as negative controls. Staurosporine-treated cells (1 µM) were used as positive controls of the assays. The assay was performed by using Caspase-3 Activity Assay Kit (#5723, Cell Signaling), by following the manufacture's instruction. Briefly, after 24 hours from the treatment started, cell medium was removed and 30 ul of cell lysis buffer (PI-7018, Cell Signaling) were added. The plate was then incubated for 5 minutes on ice. Later, 25 ul of cell lysate were mixed with 200 ul substrate solution B (#11734S, Cell Signaling) in a black 96 well plate. Fluorescence was detected by using a multimode plate reader (Enspire, 2300, PerkinElmer). The positive control AMC (25 µl, #11735S, Cell Signaling) mixed with 200 ul 1X assay buffer A (#11736S, Cell Signaling) was used as positive control of fluorescence."}, "Acute toxicity in vivo": {"experiment": "Acute toxicity in vivo", "parameters": "species or system FVB mice", "conditions": "for hepatotoxicity or nephrotoxicity (glutamate-pyruvate transaminase 1, creatinine blood levels, blood urea nitrogen): HCl salt", "protocol": "The toxicity of LEO-AA7.5(S)T was determined with 4-week-old FVB mice grouped according to body weight. Escalating doses of LEO-AA7.5(S)T (60mg or 120mg/kg/day) or vehicle (water) were administered intraperitoneally, daily for 12 days. At sacrifice, the blood and organs were collected and evaluated. Haematological and biochemical markers of hepatic and renal functions were evaluated. Data are expressed as means from four mice within each treatment group."}, "[1]": {"conditions": "listed as (S)-(1-(4-((4-methoxybenzyl)amino)-1,3,5-triazin-2-yl)piperidin-3-yl)methanol HC"}, "[2]": {"conditions": "60 and 120 mg/kg intraperitoneally, daily for 12 days"}}, "note": "“Also recorded” adds a separate entry of the source."}
{"smiles": "COc1ccc(CNc2ncnc(N3CCC[C@H](CO)C3)n2)cc1.Cl", "note": "[LEO-AA7.5(S)T, (S)-(1-(4-((4-methoxybenzyl)amino)-1,3,5-triazin-2-yl)piperidin-3-yl)methanol HCl salt]", "values": [{"measurement": "intracranial tumor growth (bioluminescence, photon emission)", "setting": "MATH1-Prune1/ TP53-/-", "value": "impairment of tumour growth"}, {"measurement": "intracranial tumor growth (bioluminescence, photon emission)", "setting": "MATH1-Prune1/ TP53-/-; [1]", "value": "significantly decreased; also recorded: anti-tumorigenic action"}, {"measurement": "BLI signal from the spinal cord (metastasis)", "setting": "MATH1-Prune1/ TP53-/-", "value": "decrease of metastasis"}, {"measurement": "BLI signal from the spinal cord (metastasis)", "setting": "MATH1-Prune1/ TP53-/-; [1]", "value": "decreased intensity of BLI signal"}, {"measurement": "immunosuppressive T cells (CD4+PD1+FOXP3+ and CD8+PD1+FOXP3+) in the tumor microenvironment", "setting": "MATH1-Prune1/ TP53-/-; 6 mg/kg/day, immunofluorescence of cerebellar tumor sections", "value": "reduced"}, {"measurement": "proliferation rate", "setting": "MMTV-Prune1/Wnt1 cells", "value": "reduction"}, {"measurement": "Caspase 3 activation, combination with Vincristine", "setting": "Caspase 3; 10 µM plus 0.03 nM Vincristine", "value": "promotes Caspase 3 activation"}, {"measurement": "Caspase 3 activation, single agent", "setting": "Caspase 3; Vincristine 0.3 nM and 0.03 nM, LEO-AA7.5(S)T 10 µM, 24 hours", "value": "does not induce apoptotic action"}, {"measurement": "liver, spleen and kidney weight, treated vs controls", "setting": "Acute toxicity in vivo; 60mg or 120mg/kg/day intraperitoneally for 12 days", "value": "no decrease"}, {"measurement": "haematological parameters (e.g. white blood cell count)", "setting": "Acute toxicity in vivo; [2]", "value": "no significant variations"}, {"measurement": "immediate toxicity effects", "setting": "Acute toxicity in vivo; [2]", "value": "no immediate toxicity effects"}, {"measurement": "hepatotoxicity or nephrotoxicity (glutamate-pyruvate transaminase 1, creatinine blood levels, blood urea nitrogen)", "setting": "Acute toxicity in vivo; [2]", "value": "absence of drug-induced hepatotoxicity and renal failure"}, {"measurement": "hepatotoxicity or nephrotoxicity (glutamate-pyruvate transaminase 1, creatinine blood levels, blood urea nitrogen)", "setting": "Acute toxicity in vivo; 60 and 120 mg/kg intraperitoneally, daily for 12 days, listed as (S)-(1-(4-((4-methoxybenzyl)amino)-1,3,5-triazin-2-yl)piperidin-3-yl)methanol HC", "value": "no signs of hepatotoxicity or nephrotoxicity"}]}
